Patent US7608642B2, “Wound and skin care compositions” (Kimberly-Clark Worldwide, Inc., priority 2002, dated 2009)
“And” between values parts separate entries of the source, which are not always exact repeats. Equal values may be shown once. “Also recorded” adds a separate entry of the source.

Columns and labels:
[1] = test system: collagen production in the human skin fibroblast cell line; assay: Collagen production in human skin fibroblasts (Takara EIA kit MK101, absorbance 450 nm); type: cell-based; settings: for Mean optical density (OD) at 450 nm, collagen production / Median optical density (OD) at 450 nm, collagen production: 48 hours, n=2
Procedure: The cells were first grown in a 96-well assay system using Dulbecco's Modified Eagle's Medium (DMEM) with 10% fetal bovine serum (FBS) both purchased from Sigma Chemical Co, St. Louis, Mo. Serum-free DMEM was used as a control.
The assay was done by using the recommended 20 ul of the supernatant from each well of the 96-well plate. Standard buffer and stop solutions were freshly prepared before running the assay. 100 ul of antibody-POD conjugate solution (supplied with the kit) was added into the wells using pre antibody coated 96 well plate (supplied with the kit). 20 ul of standard and test solutions (from the other 96-well plate containing fibroblasts) were added to appropriate wells. Plate was mixed gently, sealed and incubated for three hrs. at 37° C.
After incubation each well was washed carefully four times with PBS buffer (400 ul). All the wells were completely emptied at the end of washing from any liquid.
100 ul of substrate solution (hydrogen peroxide and tetramethylbenzidine in a buffer solution, supplied with the kit) was added to each well and the plate was incubated for 15 minutes. At this point 100 ul of stop solution (freshly prepared 1N H2SO4) was added to each well in the same order as substrate. The plate was gently mixed and absorbance was read at 450 nm.

[2] = test system: healthy female volunteers; assay: Dansyl chloride cell renewal study (stratum corneum renewal time); type: in vivo, human; settings: topical twice daily for two weeks
Source text: The stratum corneum renewal time is the time taken for the whole thickness of the stratum corneum to be exfoliated and replaced by new cells from the dividing epidermis. This renewal time is a fundamental indicator of skin health. […] See Jansen L H, Hojyo-Tomoko M T, Kligman A M., Improved fluorescence staining technique for estimating turnover of the human stratum corneum, Br J Dermatol., 90, 9-12, 1974; Ridge B D, Batt M D, Palmer H E, Jarrett A, The dansyl chloride technique for stratum corneum renewal as an indicator of changes in epidermal mitotic activity following topical treatment., Br J Dermatol., 118, 167-74, 1988; Grove G L, Kligman A M, Age-associated changes in human epidermal cell renewal., J Geron., 38, 137-142, 1983. The time required for the dye to disappear is therefore an indication of the turnover time of the stratum corneum. Therefore, any differences in the time required for the dye to disappear from treated and non-treated sites can be considered to be an expression of that product's ability to enhance epidermal renewal.
A dansyl chloride cell renewal study was conducted in healthy female volunteers ranging from 43-64 years of age. The study consisted of a two-week treatment period during which time the products were applied topically twice daily, including on weekend days, to the test sites. The area of application was designated, approximately 5 cm×10 cm on the upper inner arm. The other arm served as a control with no product application. […] Eight females received jasmonic acid and seven females received gibberellic acid.
The time required for a marker dye to disappear was used as the measure of cell renewal rate.

[3] = test system: fibronectin production in the human skin fibroblast cell line; assay: Fibronectin production in human skin fibroblasts (Takara EIA kit MK115, absorbance 450 nm); type: cell-based; settings: for Mean optical density (OD) at 450 nm, fibronectin production / Median optical density (OD) at 450 nm, fibronectin production: 48 hours, n=2
Procedure: The cells were first grown in a 96-well assay system using Dulbecco's Modified Eagle's Medium (DMEM) with 10% fetal bovine serum (FBS) both purchased from Sigma Chemical Co, St. Louis, Mo. Serum-free DMEM was used as a control. […] The fibronectin assay was performed using the recommended 100 μl of the supernatant from each well of the 96-well plate. Standard buffer and stop solutions were freshly prepared before running the assay. A pre-antibody-coated 96 well plate (provided with the kit) was used to transfer the test samples and control. The plate was mixed, sealed and incubated for 1 hour at 37° C. All the wells were washed after removing sample solutions, 3 times (300 μl) with washing buffer. 100 ul of antibody-POD conjugate solution was added into the wells. Plate was mixed, sealed and incubated for one hour at 37° C. Solutions were removed and the wells were washed 3 times with washing buffer. All the wells were completely emptied at the end of washing from any liquid. 100 μl of substrate solution (hydrogen peroxide and tetramethylbenzidine in a buffered solution) was added to each well and the plate was incubated at room temperature for 15 minutes. 100 μl of stop solution (freshly prepared 1N H2SO4) was added to each well in the same order as substrate. The plate was gently mixed and absorbance was read at 450 nm.

[4] = test system: human skin keratinocyte cell line (normal human epidermal keratinocytes, neonatal); assay: Proliferation of human skin keratinocytes (Cell Titer 96, absorbance 490 nm); type: cell-based; settings: for Cell proliferating activity on human keratinocytes (in words): 1×10^−4 M to 1×10^−6 M vs control; for Mean optical density (OD) at 490 nm, cell proliferation / Median optical density (OD) at 490 nm, cell proliferation: 48 hours, KBM, n=5
Procedure: In addition, 100 μl of vehicle KBM was added to 5 wells as control. […] The spectrophotometric absorbance of each well was read at 490 nm.

[5] = test system: Swiss Albino mice; assay: Wound healing, full thickness skin wounds (3 mm biopsy punch) in mice; type: in vivo, mouse; settings: topical 5 μl of 0.2% solution, 5 doses Day 0-2, vs control (WFI)
Procedure: Twenty, 12-week old Swiss Albino mice were anesthetized with a ketamine/acepromazine cocktail and subjected to four full thickness skin wounds on the dorsolateral surface. […] Jasmonic acid (100 mg) was dissolved in 2 ml ethanol. 200 μl of the resulting solution was then added to 4.8 ml of WFI. Four wounds were made on either side of the spinal column using a 3 mm biopsy punch. To make the wounds, the skin was first tented and the punch was driven through the tented skin to generate both wounds with a single stroke. The upper left quadrant wound site of the animal was assigned to receive the control solution (WFI). […] The wound sites were dosed 5 times (twice on Day 0, Day 1, and once on Day 2). All wounds were treated with 5 μl of test or control solutions. Wounds were allowed to absorb the solutions for 5 minutes before returning the animals to their cages for recovery. All the animals were housed singly. The in-life phase for the animals is 5 days. Each day the wounds on the mice were traced onto glass slides and measured using calipers accurate to the nearest 0.1 mm. Photographs of the wounds were also taken daily for the duration of the study to measure wound size. Means and the standard deviations of the wound diameters for each day were calculated for the healing profile. The effects of the test substances on wound healing were compared to the effects of the control (WFI).

[6] = 1×10^−4 M to 1×10^−6 M vs control

`C=C1C[C@]23C[C@@]1(O)CC[C@H]2[C@@]12C=C[C@H](O)[C@@](C)(C(=O)O1)[C@H]2[C@@H]3C(=O)O` [gibberellic acid] was tested, and the “Stimulation of collagen production (in words)” value [1, 6] was “more profound, particularly at lower, rather than higher, concentrations; also recorded: lower concentrations of gibberellic acid had the most profound effect”, the “Mean optical density (OD) at 450 nm, collagen production” value ([1]; 1×10^−4 M) was 0.7780 and the “Median optical density (OD) at 450 nm, collagen production” value ([1]; 1×10^−4 M) was 0.7780. For the same molecule, the “Mean optical density (OD) at 450 nm, collagen production” value ([1]; 1×10^−5 M) was 0.8365, the “Median optical density (OD) at 450 nm, collagen production” value ([1]; 1×10^−5 M) was 0.8365 and the “Mean optical density (OD) at 450 nm, collagen production” value ([1]; 1×10^−6 M) was 0.8630. The “Median optical density (OD) at 450 nm, collagen production” value ([1]; 1×10^−6 M) was 0.8630, the “Skin irritation or redness” value ([2]; 0.25% composition) was “no visible sign of any skin irritation or redness” and the “Time for cell renewal, treated skin (RENEWAL)” value ([2]; 0.25% in hyaluronic acid (0.5% aqueous solution), upper inner arm, individual patients, listed as GA) was 21 Days and 14 Days (2×) and 12 Days (2×) and 19 Days and 17 Days. The “Stimulation of fibronectin production (in words)” value [3, 6] was “effective for stimulating fibronectin production in human fibroblasts; also recorded: Both low and high concentrations of gibberellic acid stimulated fibronectin production”, the “Mean optical density (OD) at 450 nm, fibronectin production” value ([3]; 1×10^−4 M) was 0.2150 and the “Median optical density (OD) at 450 nm, fibronectin production” value ([3]; 1×10^−4 M) was 0.2150. For the same molecule, the “Mean optical density (OD) at 450 nm, fibronectin production” value ([3]; 1×10^−5 M) was 0.2090, the “Median optical density (OD) at 450 nm, fibronectin production” value ([3]; 1×10^−5 M) was 0.2090 and the “Mean optical density (OD) at 450 nm, fibronectin production” value ([3]; 1×10^−6 M) was 0.2225. The “Median optical density (OD) at 450 nm, fibronectin production” value ([3]; 1×10^−6 M) was 0.2225, the “Cell proliferating activity on human keratinocytes (in words)” value [4] was “all concentrations of gibberellic acid had a significant effect on cell growth” and the “Cell proliferating activity on human keratinocytes (in words)” value ([4]; listed as giberrellic acid) was “strong cell proliferating activity at all concentrations”. The “Mean optical density (OD) at 490 nm, cell proliferation” value (from here on “Mean optical density (OD) at 490 nm”) ([4]; 1×10^−4 M) was 0.6512, the “Median optical density (OD) at 490 nm, cell proliferation” value (“Median optical density (OD) at 490 nm” below) ([4]; 1×10^−4 M) was 0.6510 and the “Mean optical density (OD) at 490 nm” value ([4]; 1×10^−5 M) was 0.8184. For the same molecule, the “Median optical density (OD) at 490 nm” value ([4]; 1×10^−5 M) was 0.8210, the “Mean optical density (OD) at 490 nm” value ([4]; 1×10^−6 M) was 0.7854 and the “Median optical density (OD) at 490 nm” value ([4]; 1×10^−6 M) was 0.7900. For the same molecule, the “Effect on wound closure / wound healing (in words)” value [5] was “accelerated wound healing during the 24 to 48 hrs following treatment”.
